#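 96-well plates; 48 h exposure; 5 concentrations. Endpoints by linear interpolation between flanking doses. Not reached: highest tested concentration assigned. TGI is the concentration that stops growth completely.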
# Legend:
# Experiment in all cases: NCI anticancer screen, dose series, 48 h
# [1] = tested on: HCC-2998 colon
# [2] = tested on: CCRF-CEM leukemia
# [3] = tested on: DU-145 prostate
# [4] = tested on: SK-MEL-5 melanoma
# [5] = tested on: UACC-257 melanoma
# [6] = tested on: ACHN renal
# [7] = tested on: HCT-15 colon
# [8] = tested on: SN12C renal
# [9] = tested on: HS 578T breast
# [10] = tested on: PC-3 prostate
# [11] = tested on: UACC-62 melanoma
# [12] = tested on: MDA-N
# [13] = tested on: U251 CNS
# [14] = tested on: SK-MEL-2 melanoma
# [15] = tested on: SW-620 colon
# [16] = tested on: HL-60(TB) leukemia
# [17] = tested on: M14 melanoma
# [18] = tested on: RPMI-8226 leukemia
# [19] = tested on: HT29 colon
# [20] = tested on: MOLT-4 leukemia
# [21] = tested on: T-47D breast
# [22] = tested on: BT-549 breast
# [23] = tested on: NCI/ADR-RES ovarian
# [24] = tested on: SR leukemia
# [25] = tested on: A549 NSCLC
# [26] = tested on: TK-10 renal
# [27] = tested on: NCI-H23 lung
# [28] = tested on: K-562 leukemia
# [29] = tested on: NCI-H226 lung
# [30] = tested on: RXF 393 renal
# [31] = tested on: KM12 colon
# [32] = tested on: SNB-19 CNS
# [33] = tested on: HCT-116 colon
# [34] = tested on: OVCAR-5 ovarian
# [35] = tested on: COLO 205 colon
# [36] = tested on: A498 renal
# [37] = tested on: NCI-H460 lung
# [38] = tested on: HOP-62 NSCLC
# [39] = tested on: IGROV1 ovarian
# [40] = tested on: SF-539 CNS
# [41] = tested on: HOP-92 NSCLC
# [42] = tested on: OVCAR-4 ovarian
# [43] = tested on: MDA-MB-435
# [44] = tested on: SK-OV-3 ovarian
# [45] = tested on: SF-268 CNS
# [46] = tested on: MALME-3M melanoma
# [47] = tested on: SK-MEL-28 melanoma
# [48] = tested on: SNB-75 CNS
# [49] = tested on: 786-0 renal
# [50] = tested on: UO-31 renal
# [51] = tested on: MCF7 breast
# [52] = tested on: MDA-MB-231 breast
# [53] = tested on: LOX IMVI melanoma
# [54] = tested on: EKVX NSCLC
# [55] = tested on: SF-295 CNS
# [56] = tested on: OVCAR-3 ovarian
# [57] = tested on: OVCAR-8 ovarian
# [58] = tested on: CAKI-1 renal
# [59] = tested on: NCI-H522 lung
smiles,measurement,setting,value
COC(=O)C(Cc1ccccc1)NC(=O)CSc1nnc(COc2ccc(Cl)cc2)n1-c1ccccc1 (stereo not given),TGI,[1],31.8 µM
same,TGI,[2],63.3 µM
same,TGI,[3],> 100 µM
same,TGI,[4],31.4 µM
same,TGI,[5],26.2 µM
same,TGI,[6],30.4 µM
same,TGI,[7],> 100 µM
same,TGI,[8],48.9 µM
same,TGI,[9],> 100 µM
same,TGI,[10],59 µM
same,TGI,[11],27.9 µM
same,TGI,[12],43.7 µM
same,TGI,[13],32.9 µM
same,TGI,[14],33.2 µM
same,TGI,[15],> 100 µM
same,TGI,[16],46.6 µM
same,TGI,[17],35.1 µM
same,TGI,[18],73.5 µM
same,TGI,[19],53.2 µM
same,TGI,[20],> 100 µM
same,TGI,[21],> 100 µM
same,TGI,[22],69.6 µM
same,TGI,[23],55.2 µM
same,TGI,[24],> 100 µM
same,TGI,[25],> 100 µM
same,TGI,[26],40 µM
same,TGI,[27],53.3 µM
same,TGI,[28],> 100 µM
same,TGI,[29],> 100 µM
same,TGI,[30],43 µM
same,TGI,[31],> 100 µM
same,TGI,[32],> 100 µM
same,TGI,[33],54.6 µM
same,TGI,[34],54.6 µM
same,TGI,[35],41.8 µM
same,TGI,[36],56.1 µM
same,TGI,[37],35.7 µM
same,TGI,[38],45 µM
same,TGI,[39],> 100 µM
same,TGI,[40],51.3 µM
same,TGI,[41],76.7 µM
same,TGI,[42],64.9 µM
same,TGI,[43],45.6 µM
same,TGI,[44],63 µM
same,TGI,[45],> 100 µM
same,TGI,[46],42.7 µM
same,TGI,[47],78.6 µM
same,TGI,[48],56.1 µM
same,TGI,[49],29.8 µM
same,TGI,[50],3.34 µM
same,TGI,[51],58.5 µM
same,TGI,[52],41.8 µM
same,TGI,[53],28.3 µM
COc1cc(CN=c2nc(N(C)C)ss2)cc(OC)c1OC,TGI,[1],> 10 µM
same,TGI,[2],1.56 µM
same,TGI,[3],> 10 µM
same,TGI,[54],> 10 µM
same,TGI,[55],> 10 µM
same,TGI,[4],> 10 µM
same,TGI,[5],> 10 µM
same,TGI,[6],> 10 µM
same,TGI,[7],> 10 µM
same,TGI,[8],> 10 µM
same,TGI,[9],> 10 µM
same,TGI,[10],> 10 µM
same,TGI,[11],> 10 µM
same,TGI,[12],> 10 µM
same,TGI,[13],> 10 µM
same,TGI,[15],> 10 µM
same,TGI,[16],4.47 µM
same,TGI,[17],> 10 µM
same,TGI,[56],> 10 µM
same,TGI,[18],> 7.37 µM
same,TGI,[19],> 10 µM
same,TGI,[20],7.18 µM
same,TGI,[21],> 10 µM
same,TGI,[23],> 10 µM
same,TGI,[24],3.38 µM
same,TGI,[25],> 10 µM
same,TGI,[57],> 8.92 µM
same,TGI,[26],> 10 µM
same,TGI,[27],> 10 µM
same,TGI,[28],5.67 µM
same,TGI,[29],> 10 µM
same,TGI,[58],> 10 µM
same,TGI,[30],> 10 µM
same,TGI,[31],> 10 µM
same,TGI,[32],> 10 µM
same,TGI,[33],> 10 µM
same,TGI,[34],> 10 µM
same,TGI,[35],> 10 µM
same,TGI,[36],> 10 µM
same,TGI,[37],> 10 µM
same,TGI,[38],> 10 µM
same,TGI,[39],> 10 µM
same,TGI,[59],> 10 µM
same,TGI,[40],> 10 µM
same,TGI,[41],> 10 µM
same,TGI,[42],> 10 µM
same,TGI,[43],> 10 µM
same,TGI,[44],> 10 µM
same,TGI,[45],> 10 µM
same,TGI,[46],> 9.27 µM
same,TGI,[47],> 10 µM
same,TGI,[48],> 10 µM
same,TGI,[49],> 5.44 µM
same,TGI,[50],> 10 µM
same,TGI,[51],> 10 µM
same,TGI,[52],> 10 µM
same,TGI,[53],4.4 µM
